{"source": "ChEMBL document CHEMBL4390652", "about": "“Design, biological evaluation and X-ray crystallography of nanomolar multifunctional ligands targeting simultaneously acetylcholinesterase and glycogen synthase kinase-3” (Eur J Med Chem, 2019)", "key": {"[1]": {"target": "Mitogen-activated protein kinase kinase kinase 10 (Homo sapiens) (UniProt Q02779)", "sequence (Q02779 whole entry, looked up, the tested form may be a part)": "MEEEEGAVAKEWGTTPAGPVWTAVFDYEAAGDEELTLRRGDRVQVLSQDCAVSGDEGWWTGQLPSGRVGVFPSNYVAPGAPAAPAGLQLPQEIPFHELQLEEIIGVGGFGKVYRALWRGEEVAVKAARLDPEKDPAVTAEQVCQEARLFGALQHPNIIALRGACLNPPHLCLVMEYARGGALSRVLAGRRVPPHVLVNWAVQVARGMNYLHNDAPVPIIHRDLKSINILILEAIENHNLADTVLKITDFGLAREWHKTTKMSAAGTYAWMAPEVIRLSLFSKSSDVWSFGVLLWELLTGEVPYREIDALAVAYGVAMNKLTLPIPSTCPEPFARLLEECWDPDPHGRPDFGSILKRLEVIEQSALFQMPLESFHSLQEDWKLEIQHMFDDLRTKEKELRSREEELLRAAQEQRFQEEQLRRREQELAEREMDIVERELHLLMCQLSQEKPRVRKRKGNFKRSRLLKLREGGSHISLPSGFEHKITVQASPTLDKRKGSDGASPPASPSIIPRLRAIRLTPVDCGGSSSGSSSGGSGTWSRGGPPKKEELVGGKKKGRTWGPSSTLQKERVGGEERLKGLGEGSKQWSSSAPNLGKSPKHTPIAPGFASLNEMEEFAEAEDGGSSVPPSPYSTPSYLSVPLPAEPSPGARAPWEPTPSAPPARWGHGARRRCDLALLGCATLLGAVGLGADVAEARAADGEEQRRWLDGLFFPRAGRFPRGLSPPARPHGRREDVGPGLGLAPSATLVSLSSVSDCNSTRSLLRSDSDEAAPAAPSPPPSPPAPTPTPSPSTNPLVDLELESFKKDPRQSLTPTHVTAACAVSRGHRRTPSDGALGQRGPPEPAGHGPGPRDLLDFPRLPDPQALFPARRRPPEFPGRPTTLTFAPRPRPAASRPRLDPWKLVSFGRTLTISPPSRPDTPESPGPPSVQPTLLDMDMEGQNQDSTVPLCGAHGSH", "test": "Binding affinity to wild-type human partial length MLK2 (V52 to W380 residues) expressed in bacterial expression system assessed as residual binding level at 10 uM by Kinomescan method relative to control"}, "[2]": {"target": "Mitogen-activated protein kinase 8 (Homo sapiens) (UniProt P45983)", "sequence (P45983 whole entry, the tested form may be a part)": "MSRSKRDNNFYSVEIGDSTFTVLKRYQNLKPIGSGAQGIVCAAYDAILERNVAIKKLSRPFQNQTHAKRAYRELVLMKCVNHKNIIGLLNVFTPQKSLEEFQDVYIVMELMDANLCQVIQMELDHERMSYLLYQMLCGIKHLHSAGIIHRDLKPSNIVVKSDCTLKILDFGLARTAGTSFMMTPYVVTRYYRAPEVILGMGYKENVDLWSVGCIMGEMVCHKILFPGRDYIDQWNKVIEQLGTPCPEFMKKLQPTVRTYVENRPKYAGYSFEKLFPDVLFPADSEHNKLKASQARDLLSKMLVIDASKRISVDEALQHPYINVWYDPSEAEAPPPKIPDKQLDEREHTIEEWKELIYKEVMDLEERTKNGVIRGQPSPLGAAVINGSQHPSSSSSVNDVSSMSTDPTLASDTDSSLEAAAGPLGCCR", "test": "Binding affinity to wild-type human full length JNK1 (M1 to Q384 residues) expressed in mammalian expression system assessed as residual binding level at 10 uM by Kinomescan method relative to control"}, "[3]": {"target": "Interleukin-1 receptor-associated kinase 4 (Homo sapiens) (UniProt Q9NWZ3)", "test": "Binding affinity to wild-type human partial length IRAK4 (M1 to S460 residues) expressed in mammalian expression system assessed as residual binding level at 10 uM by Kinomescan method relative to control"}, "[4]": {"target": "Misshapen-like kinase 1 (Homo sapiens) (UniProt Q8N4C8)", "test": "Binding affinity to wild-type human partial length MINK (M1 to K312 residues) expressed in mammalian expression system assessed as residual binding level at 10 uM by Kinomescan method relative to control"}, "[5]": {"target": "Serine/threonine-protein kinase Nek2 (Homo sapiens) (UniProt P51955)", "test": "Binding affinity to wild-type human partial length NEK2 (M1 to K309 residues) expressed in bacterial expression system assessed as residual binding level at 10 uM by Kinomescan method relative to control"}, "[6]": {"system": "Phosphatidylinositol 4,5-bisphosphate 3-kinase catalytic subunit alpha isoform (Homo sapiens), P42336 [E542K]", "sequence (P42336 whole entry E542K, the tested form may be a part, canonical isoform)": "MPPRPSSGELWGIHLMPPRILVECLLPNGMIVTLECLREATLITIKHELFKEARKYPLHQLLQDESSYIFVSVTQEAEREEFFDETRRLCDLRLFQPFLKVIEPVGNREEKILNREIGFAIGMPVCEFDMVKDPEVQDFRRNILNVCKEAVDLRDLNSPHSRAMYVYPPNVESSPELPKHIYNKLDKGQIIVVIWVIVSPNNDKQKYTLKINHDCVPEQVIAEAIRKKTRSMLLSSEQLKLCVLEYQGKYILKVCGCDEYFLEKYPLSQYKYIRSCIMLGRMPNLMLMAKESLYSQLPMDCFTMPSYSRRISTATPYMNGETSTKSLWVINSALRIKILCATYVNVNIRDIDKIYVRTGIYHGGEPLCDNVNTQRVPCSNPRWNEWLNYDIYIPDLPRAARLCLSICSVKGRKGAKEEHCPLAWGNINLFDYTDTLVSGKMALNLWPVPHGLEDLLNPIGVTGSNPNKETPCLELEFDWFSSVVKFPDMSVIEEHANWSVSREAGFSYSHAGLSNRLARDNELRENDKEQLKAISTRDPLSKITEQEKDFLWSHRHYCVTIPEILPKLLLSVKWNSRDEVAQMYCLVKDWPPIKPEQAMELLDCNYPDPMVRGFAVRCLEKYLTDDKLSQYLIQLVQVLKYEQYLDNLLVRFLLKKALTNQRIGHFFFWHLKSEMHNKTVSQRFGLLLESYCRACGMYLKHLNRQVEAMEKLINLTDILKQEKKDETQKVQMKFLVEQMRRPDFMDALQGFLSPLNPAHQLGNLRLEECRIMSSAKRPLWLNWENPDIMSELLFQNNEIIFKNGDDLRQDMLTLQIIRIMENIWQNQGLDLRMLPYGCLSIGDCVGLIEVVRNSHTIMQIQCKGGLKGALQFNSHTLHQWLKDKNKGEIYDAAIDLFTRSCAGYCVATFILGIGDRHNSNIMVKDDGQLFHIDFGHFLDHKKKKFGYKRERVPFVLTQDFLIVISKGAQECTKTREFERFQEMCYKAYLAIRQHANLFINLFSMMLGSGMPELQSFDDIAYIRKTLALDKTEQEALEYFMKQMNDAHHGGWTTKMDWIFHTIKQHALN", "test": "Binding affinity to human partial length PIK3CA E542K mutant (R108 to N1068 residues) expressed in mammalian expression system assessed as residual binding level at 10 uM by Kinomescan method relative to control"}, "[7]": {"system": "Receptor-type tyrosine-protein kinase FLT3 (Homo sapiens), P36888 [K663Q]", "test": "Binding affinity to human partial length FLT3 K663Q mutant (V592 to Y969 residues) expressed in bacterial expression system assessed as residual binding level at 10 uM by Kinomescan method relative to control"}, "MDA-MB-231": {"system": "MDA-MB-231", "test": "Cytotoxicity against human MDA-MB-231 cells assessed as growth inhibition incubated for 48 hrs by Hoechst 33342 staining based assay", "assay_type": "cell-based", "settings": "MDA-MB-231, 48 h"}, "[8]": {"target": "Serine/threonine-protein kinase Sgk2 (Homo sapiens) (UniProt Q9HBY8)", "test": "Binding affinity to wild-type human partial length SGK2 (L54 to C427 residues) expressed in mammalian expression system assessed as residual binding level at 10 uM by Kinomescan method relative to control"}, "[9]": {"target": "Phosphatidylinositol 4-phosphate 5-kinase type-1 gamma (Homo sapiens) (UniProt O60331)", "sequence (O60331 whole entry, the tested form may be a part)": "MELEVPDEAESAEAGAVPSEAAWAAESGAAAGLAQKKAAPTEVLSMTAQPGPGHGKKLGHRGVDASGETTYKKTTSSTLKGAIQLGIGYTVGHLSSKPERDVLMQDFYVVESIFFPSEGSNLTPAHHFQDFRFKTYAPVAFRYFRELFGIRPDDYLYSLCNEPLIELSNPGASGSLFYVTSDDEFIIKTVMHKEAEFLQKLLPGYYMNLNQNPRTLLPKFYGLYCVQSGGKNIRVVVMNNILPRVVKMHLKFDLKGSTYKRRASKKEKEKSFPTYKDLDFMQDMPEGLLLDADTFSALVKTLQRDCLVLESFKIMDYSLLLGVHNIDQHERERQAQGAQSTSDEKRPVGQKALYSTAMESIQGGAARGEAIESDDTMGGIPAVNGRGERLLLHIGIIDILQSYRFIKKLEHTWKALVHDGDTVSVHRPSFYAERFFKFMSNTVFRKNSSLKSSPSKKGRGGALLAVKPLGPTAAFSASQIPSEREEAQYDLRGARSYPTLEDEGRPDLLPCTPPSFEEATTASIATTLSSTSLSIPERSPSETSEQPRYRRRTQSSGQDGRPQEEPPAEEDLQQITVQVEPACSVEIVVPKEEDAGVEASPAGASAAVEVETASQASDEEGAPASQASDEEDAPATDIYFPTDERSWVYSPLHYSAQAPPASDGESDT", "test": "Binding affinity to wild-type human partial length PIP5K1C (M1 to T668 residues) expressed in mammalian expression system assessed as residual binding level at 10 uM by Kinomescan method relative to control"}, "[10]": {"target": "Serine/threonine-protein kinase DCLK2 (Homo sapiens) (UniProt Q8N568)", "test": "Binding affinity to wild-type human partial length DCAMKL2 (K273 to V664 residues) expressed in bacterial expression system assessed as residual binding level at 10 uM by Kinomescan method relative to control"}, "[11]": {"target": "Serine/threonine-protein kinase D2 (Homo sapiens) (UniProt Q9BZL6)", "test": "Binding affinity to wild-type human partial length PRKD2 (A519 to E838 residues) expressed in bacterial expression system assessed as residual binding level at 10 uM by Kinomescan method relative to control"}, "[12]": {"target": "Non-receptor tyrosine-protein kinase TYK2 (Homo sapiens) (UniProt P29597)", "sequence (P29597 whole entry, the tested form may be a part)": "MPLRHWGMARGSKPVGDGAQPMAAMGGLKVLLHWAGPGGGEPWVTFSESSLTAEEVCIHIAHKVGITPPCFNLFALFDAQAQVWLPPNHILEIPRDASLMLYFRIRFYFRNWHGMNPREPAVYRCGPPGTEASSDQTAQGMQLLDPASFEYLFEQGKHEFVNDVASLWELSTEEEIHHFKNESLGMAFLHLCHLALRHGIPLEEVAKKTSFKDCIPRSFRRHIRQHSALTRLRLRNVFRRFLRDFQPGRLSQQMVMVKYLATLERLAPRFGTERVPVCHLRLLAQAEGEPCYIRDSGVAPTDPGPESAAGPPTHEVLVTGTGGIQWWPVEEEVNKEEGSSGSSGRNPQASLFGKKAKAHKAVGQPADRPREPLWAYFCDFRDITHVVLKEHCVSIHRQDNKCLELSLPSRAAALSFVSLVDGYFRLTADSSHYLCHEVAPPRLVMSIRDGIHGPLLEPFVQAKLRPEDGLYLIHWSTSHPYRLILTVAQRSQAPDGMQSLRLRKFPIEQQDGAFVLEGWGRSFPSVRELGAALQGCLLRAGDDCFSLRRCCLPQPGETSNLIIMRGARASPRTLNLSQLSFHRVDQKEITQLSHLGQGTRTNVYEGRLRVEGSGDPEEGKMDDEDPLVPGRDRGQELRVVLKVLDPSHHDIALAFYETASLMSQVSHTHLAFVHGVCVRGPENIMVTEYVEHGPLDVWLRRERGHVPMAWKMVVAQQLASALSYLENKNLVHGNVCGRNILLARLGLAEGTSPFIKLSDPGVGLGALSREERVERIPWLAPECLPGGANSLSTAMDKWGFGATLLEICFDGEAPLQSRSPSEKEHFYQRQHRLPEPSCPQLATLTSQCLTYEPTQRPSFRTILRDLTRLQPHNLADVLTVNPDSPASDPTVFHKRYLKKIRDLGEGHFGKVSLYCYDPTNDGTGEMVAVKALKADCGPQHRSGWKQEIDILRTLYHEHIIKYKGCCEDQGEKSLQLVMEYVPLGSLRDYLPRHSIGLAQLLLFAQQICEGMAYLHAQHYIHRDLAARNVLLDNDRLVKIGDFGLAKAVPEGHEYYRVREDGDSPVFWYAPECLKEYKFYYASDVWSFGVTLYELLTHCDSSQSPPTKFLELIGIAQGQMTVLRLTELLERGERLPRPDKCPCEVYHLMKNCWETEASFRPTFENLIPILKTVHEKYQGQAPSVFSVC", "test": "Binding affinity to wild-type human partial length TYK2 JH2 pseudokinase domain (G556 to D888 residues) expressed in mammalian expression system assessed as residual binding level at 10 uM by Kinomescan method relative to control"}, "HCT-116": {"system": "HCT-116", "test": "Cytotoxicity against human HCT116 cells assessed as growth inhibition incubated for 48 hrs by Hoechst 33342 staining based assay", "assay_type": "cell-based", "settings": "HCT-116, 48 h"}, "[13]": {"target": "Serine/threonine-protein kinase TAO2 (Homo sapiens) (UniProt Q9UL54)", "test": "Binding affinity to wild-type human partial length TAOK2 (M1 to A320 residues) expressed in mammalian expression system assessed as residual binding level at 10 uM by Kinomescan method relative to control"}, "[14]": {"system": "Phosphatidylinositol 4,5-bisphosphate 3-kinase catalytic subunit alpha isoform (Homo sapiens), P42336 [Q546K]", "sequence (P42336 whole entry Q546K, the tested form may be a part, canonical isoform)": "as the sequence (P42336 whole entry E542K, the tested form may be a part, canonical isoform) above, with K542E, Q546K counted along it", "test": "Binding affinity to human partial length PIK3CA Q546K mutant (R108 to N1068 residues) expressed in mammalian expression system assessed as residual binding level at 10 uM by Kinomescan method relative to control"}, "[15]": {"target": "Dual specificity tyrosine-phosphorylation-regulated kinase 1B (Homo sapiens) (UniProt Q9Y463)", "sequence (Q9Y463 whole entry, looked up, the tested form may be a part)": "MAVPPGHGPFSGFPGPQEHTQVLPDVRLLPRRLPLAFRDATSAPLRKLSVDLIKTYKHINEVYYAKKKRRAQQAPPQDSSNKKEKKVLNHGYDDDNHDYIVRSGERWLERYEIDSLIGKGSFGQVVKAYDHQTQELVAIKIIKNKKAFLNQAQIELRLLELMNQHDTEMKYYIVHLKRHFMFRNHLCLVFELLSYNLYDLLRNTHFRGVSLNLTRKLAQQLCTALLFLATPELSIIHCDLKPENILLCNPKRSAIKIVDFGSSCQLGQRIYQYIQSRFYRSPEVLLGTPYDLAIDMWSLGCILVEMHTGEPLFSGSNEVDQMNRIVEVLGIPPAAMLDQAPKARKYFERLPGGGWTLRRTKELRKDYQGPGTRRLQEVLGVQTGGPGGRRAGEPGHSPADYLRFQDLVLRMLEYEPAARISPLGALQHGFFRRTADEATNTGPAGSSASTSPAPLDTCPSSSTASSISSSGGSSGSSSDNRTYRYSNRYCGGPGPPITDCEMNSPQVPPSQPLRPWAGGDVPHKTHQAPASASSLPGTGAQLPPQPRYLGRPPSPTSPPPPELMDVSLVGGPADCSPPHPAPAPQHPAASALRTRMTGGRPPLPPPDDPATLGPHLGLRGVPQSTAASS", "test": "Binding affinity to wild-type human full length DYRK1B (M1 to S629 residues) expressed in bacterial expression system assessed as residual binding level at 10 uM by Kinomescan method relative to control"}, "[16]": {"system": "Receptor-type tyrosine-protein kinase FLT3 (Homo sapiens), P36888 [UNDEFINED MUTATION]", "test": "Binding affinity to human partial length FLT3 ITD/D835V double mutant expressed in bacterial expression system assessed as residual binding level at 10 uM by Kinomescan method relative to control"}, "[17]": {"target": "Serine/threonine-protein kinase PAK 3 (Homo sapiens) (UniProt O75914)", "test": "Binding affinity to wild-type human full length PAK3 (M1 to R544 residues) expressed in bacterial expression system assessed as residual binding level at 10 uM by Kinomescan method relative to control"}, "[18]": {"system": "Phosphatidylinositol 4,5-bisphosphate 3-kinase catalytic subunit alpha isoform (Homo sapiens), P42336 [C420R]", "sequence (P42336 whole entry C420R, the tested form may be a part, canonical isoform)": "as the sequence (P42336 whole entry E542K, the tested form may be a part, canonical isoform) above, with C420R, K542E counted along it", "test": "Binding affinity to human partial length PIK3CA C420R mutant (R108 to N1068 residues) expressed in mammalian expression system assessed as residual binding level at 10 uM by Kinomescan method relative to control"}, "[19]": {"target": "Mitogen-activated protein kinase kinase kinase 14 (Homo sapiens) (UniProt Q99558)", "test": "Binding affinity to wild-type human partial length NIK (L318 to P947 residues) expressed in mammalian expression system assessed as residual binding level at 10 uM by Kinomescan method relative to control"}, "[20]": {"target": "Serine/threonine-protein kinase MRCK beta (Homo sapiens) (UniProt Q9Y5S2)", "test": "Binding affinity to wild-type human partial length MRCKB (L56 to S417 residues) expressed in bacterial expression system assessed as residual binding level at 10 uM by Kinomescan method relative to control"}, "[21]": {"target": "Tyrosine-protein kinase Mer (Homo sapiens) (UniProt Q12866)", "test": "Binding affinity to wild-type human partial length MERTK (R557 to L884 residues) expressed in bacterial expression system assessed as residual binding level at 10 uM by Kinomescan method relative to control"}, "[22]": {"target": "NUAK family SNF1-like kinase 2 (Homo sapiens) (UniProt Q9H093)", "test": "Binding affinity to wild-type human partial length SNARK (P22 to A333 residues) expressed in mammalian expression system assessed as residual binding level at 10 uM by Kinomescan method relative to control"}}}
{"smiles": "O=C(Nc1cc(-c2cn(CCNc3c4c(nc5ccccc35)CCCC4)nn2)ccn1)Nc1cccc2c1C1CCCCN1C2=O", "note": "(racemic)", "values": [{"measurement": "Activity", "setting": "[1]", "value": 58, "unit": "%"}, {"measurement": "Activity", "setting": "[2]", "value": 0.55, "unit": "%"}, {"measurement": "Activity", "setting": "[3]", "value": 93, "unit": "%"}, {"measurement": "Activity", "setting": "[4]", "value": 28, "unit": "%"}, {"measurement": "Activity", "setting": "[5]", "value": 94, "unit": "%"}, {"measurement": "Activity", "setting": "[6]", "value": 72, "unit": "%"}, {"measurement": "Activity", "setting": "[7]", "value": 0.8, "unit": "%"}, {"measurement": "IC50", "setting": "MDA-MB-231", "value": 2000, "unit": "nM"}, {"measurement": "Activity", "setting": "[8]", "value": 10, "unit": "%"}, {"measurement": "Activity", "setting": "[9]", "value": 100, "unit": "%"}, {"measurement": "Activity", "setting": "[10]", "value": 90, "unit": "%"}, {"measurement": "Activity", "setting": "[11]", "value": 31, "unit": "%"}, {"measurement": "Activity", "setting": "[12]", "value": 19, "unit": "%"}, {"measurement": "IC50", "setting": "HCT-116", "value": 3000, "unit": "nM"}, {"measurement": "Activity", "setting": "[13]", "value": 56, "unit": "%"}, {"measurement": "Activity", "setting": "[14]", "value": 84, "unit": "%"}, {"measurement": "Activity", "setting": "[15]", "value": 3.7, "unit": "%"}, {"measurement": "Activity", "setting": "[16]", "value": 0.23, "unit": "%"}, {"measurement": "Activity", "setting": "[17]", "value": 40, "unit": "%"}, {"measurement": "Activity", "setting": "[18]", "value": 72, "unit": "%"}, {"measurement": "Activity", "setting": "[19]", "value": 28, "unit": "%"}, {"measurement": "Activity", "setting": "[20]", "value": 99, "unit": "%"}, {"measurement": "Activity", "setting": "[21]", "value": 12, "unit": "%"}, {"measurement": "Activity", "setting": "[22]", "value": 1.9, "unit": "%"}]}
